Experiments:
Type in all cases: physicochemical
[1] = Transmittance of transparent cured film
Method in brief: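 Films cured at 80 mJ/cm^2 exposure, otherwise prepared as in the earlier film evaluation. Spectrophotometer read in quartz cell, 1 cm path, giving transmittance (%) at 400 nm and average transmittance (%) over 400–700 nm.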

[2] = Average transmittance of composition; conditions: photosensitive composition, quartz cell, optical path length 1 cm
Experimental: The average transmittance (%) of each of the photosensitive resin compositions obtained in Examples 1 to 9, Examples 2-1 to 2-10, and Comparative Examples 1 and 2 in the range of from 400 nm to 700 nm was measured with a spectrophotometer (manufactured by Hitachi High-Technologies Corporation, trade name: “U-3900H”, quartz cell, optical path length; 1 cm).

[3] = Absorption coefficient (absorbance of 0.001% solution in tetrahydrofuran)
Method in brief: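 Absorbance of a 0.001% (wt/vol) solution in tetrahydrofuran recorded by spectrophotometer. Absorption maximum wavelength (λmax) taken from the spectrum within 280–400 nm.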

[4] = Solubility in PGME, PGMEA and ethyl lactate
[5] = Decomposition point by thermal analysis (TG-DTA); conditions: 5.0 mg
Experimental: The compounds 1, 2, 4, 6, 8, 9, 11, 12, 13, 15, 16, D-1, D-3, D-4, D-7, D-8, D-9, D-12, D-14, D-15, D-20, C-1, and C-2 were each subjected to measurement with a thermal analysis apparatus (TG-DTA) (manufactured by Rigaku Corporation, trade name: “Thermo Plus EVO TG 8120”) by using 5.0 mg thereof.

[6] = Transparency: coloring of the photopolymerization initiator before and after exposure; conditions: 40 g/L in tetrahydrofuran; 365 nm UV, 850 to 2,550 mJ/cm^2; compared with compound C-1
Experimental: An influence on the coloring of a photopolymerization initiator after its exposure was confirmed because the photopolymerization initiator was required to have transparency. Specifically, as described below, the degrees of coloring (color change) of the photopolymerization initiator itself before and after its exposure were evaluated by measuring its absorbance. A 40 g/L solution of the compound 4 of Synthesis Example 4 in tetrahydrofuran was prepared, and the solution was loaded into a lidded UV cell made of quartz (12.5×12.5×58 mm) having an optical path length of 1 cm. The absorption spectrum of the solution before its exposure was measured with a spectrophotometer (manufactured by Hitachi High-Technologies Corporation, trade name: “U-3900H”). After that, the quartz surface of the UV cell was vertically irradiated with 850 mJ/cm^2 of UV light having a wavelength of 365 nm by using an exposure apparatus (manufactured by Ushio Inc., trade name: “[…]” (ML-251A/B) and optical unit (PM25C-100)), and the absorption spectrum of the solution was measured again. The foregoing operations were repeatedly performed, and a change in absorbance of the solution by UV irradiation was measured. […]
The axis of abscissa of the graph of FIG. 1(A) indicates the measurement wavelength (nm) of an absorption spectrum and the axis of ordinate thereof indicates an absorbance (Abs.) at the wavelength. […]

[7] = cured at exposure energy quantity 80 mJ/cm^2
[8] = photopolymerization initiator containing the compound
[9] = 0.001% (wt/vol) solution in tetrahydrofuran

Average transmittance (700 nm to 400 nm) Transparent cured film [1, 7]: 99.9%
Transmittance (400 nm) Transparent cured film [1, 7]: 99.4%
transparency of photosensitive composition and formed product (in words) [1, 8]: additionally excellent transparency
Average transmittance (700 nm to 400 nm) Solution [2]: 96.3%
Λ max (absorption maximum wavelength) ([3]; 0.001% (wt/vol) in tetrahydrofuran, from 280 nm to 400 nm): 330.5 nm
Absorption coefficient at 365 nm [3, 9]: 2.2 mL/mg/cm
Absorption coefficient at Λ max [3, 9]: 85.7 mL/mg/cm
solubility (in words) [4, 8]: additionally excellent solubility
Decomposition point [5]: 277.0 °C
influence on the coloring by the exposure [6]: small
Structure (SMILES): CCCC1(CCC)c2cc(C(=O)c3ccccc3C)ccc2-c2ccc(/C(C)=N/OC(C)=O)cc21 [Compound 4]
Solubility Ethyl lactate ([4]; in 100 parts by weight of ethyl lactate, room temperature): B (An amount in the range of from 5 parts by weight or more to less than 10 parts by weight of the photopolymerization initiator is dissolved.)
Solubility PGMEA ([4]; in 100 parts by weight of propylene glycol monomethyl ether acetate, room temperature): A (10 Parts by weight or more of the photopolymerization initiator is dissolved.)
Solubility PGME ([4]; in 100 parts by weight of propylene glycol monomethyl ether, room temperature): B (An amount in the range of from 5 parts by weight or more to less than 10 parts by weight of the photopolymerization initiator is dissolved.)
